In publication PMC9481151, “Discovery of new symmetrical and asymmetrical nitrile-containing 1,4-dihydropyridine derivatives as dual kinases and P-glycoprotein inhibitors: synthesis, in vitro assays, and in silico studies” (Journal of Enzyme Inhibition and Medicinal Chemistry, 2022):

Assays:
HOP-92 = test: NCI single dose (10 µM) SRB screen; type: cell-based, human; conditions: non-small cell lung cancer, 48 h
SK-MEL-5 = test: NCI single dose (10 µM) SRB screen; type: cell-based, human; conditions: melanoma, 48 h
EKVX = test: NCI single dose (10 µM) SRB screen; type: cell-based, human; conditions: non-small cell lung cancer, 48 h
SR = test: NCI single dose (10 µM) SRB screen; type: cell-based, human; conditions: leukaemia, 48 h
M14 = test: NCI single dose (10 µM) SRB screen; type: cell-based, human; conditions: melanoma, 48 h
MDA-MB-468 = test: NCI single dose (10 µM) SRB screen; type: cell-based, human; conditions: breast cancer, 48 h
UACC-62 = test: NCI single dose (10 µM) SRB screen; type: cell-based, human; conditions: melanoma, 48 h
HCT-15 = test: NCI single dose (10 µM) SRB screen; type: cell-based, human; conditions: colon cancer, 48 h
UACC-257 = test: NCI single dose (10 µM) SRB screen; type: cell-based, human; conditions: melanoma, 48 h
NCI 60 cancer cell lines = test: NCI single dose (10 µM) SRB screen, mean over panel; type: cell-based, human; conditions: mean over 60 cell lines, 48 h
MALME-3M = test: NCI single dose (10 µM) SRB screen; type: cell-based, human; conditions: melanoma, 48 h
UO-31 = test: NCI single dose (10 µM) SRB screen; type: cell-based, human; conditions: renal cancer, 48 h
Candida albicans = test: Agar well diffusion method
NCI-H23 = test: NCI single dose (10 µM) SRB screen; type: cell-based, human; conditions: non-small cell lung cancer, 48 h
RPMI-8226 = test: NCI single dose (10 µM) SRB screen; type: cell-based, human; conditions: leukaemia, 48 h
HT29 = test: NCI single dose (10 µM) SRB screen; type: cell-based, human; conditions: colon cancer, 48 h
SK-MEL-2 = test: NCI single dose (10 µM) SRB screen; type: cell-based, human; conditions: melanoma, 48 h
CCRF-CEM = test: NCI single dose (10 µM) SRB screen; type: cell-based, human; conditions: leukaemia, 48 h
CAKI-1 = test: NCI single dose (10 µM) SRB screen; type: cell-based, human; conditions: renal cancer, 48 h
LOX IMVI = test: NCI single dose (10 µM) SRB screen; type: cell-based, human; conditions: melanoma, 48 h
SW-620 = test: NCI single dose (10 µM) SRB screen; type: cell-based, human; conditions: colon cancer, 48 h
U251 = test: NCI single dose (10 µM) SRB screen; type: cell-based, human; conditions: CNS cancer, 48 h
HS578T = test: NCI single dose (10 µM) SRB screen; type: cell-based, human; conditions: breast cancer, 48 h
MDA-MB-231 = test: NCI single dose (10 µM) SRB screen; type: cell-based, human; conditions: breast cancer, 48 h
Bacillus subtilis = test: Agar well diffusion method
NCI-H226 = test: NCI single dose (10 µM) SRB screen; type: cell-based, human; conditions: non-small cell lung cancer, 48 h
A549/ATCC = test: NCI single dose (10 µM) SRB screen; type: cell-based, human; conditions: non-small cell lung cancer, 48 h
SF-268 = test: NCI single dose (10 µM) SRB screen; type: cell-based, human; conditions: CNS cancer, 48 h
DU-145 = test: NCI single dose (10 µM) SRB screen; type: cell-based, human; conditions: prostate cancer, 48 h
NCI/ADR-RES = test: NCI single dose (10 µM) SRB screen; type: cell-based, human; conditions: ovarian cancer, 48 h
NCI-H322M = test: NCI single dose (10 µM) SRB screen; type: cell-based; conditions: non-small cell lung cancer, 48 h
MDA-MB-435 = test: NCI single dose (10 µM) SRB screen; type: cell-based, human; conditions: melanoma, 48 h
PC-3 = test: NCI single dose (10 µM) SRB screen; type: cell-based, human; conditions: prostate cancer, 48 h
COLO 205 = test: NCI single dose (10 µM) SRB screen; type: cell-based, human; conditions: colon cancer, 48 h
SF-295 = test: NCI single dose (10 µM) SRB screen; type: cell-based, human; conditions: CNS cancer, 48 h
ACHN = test: NCI single dose (10 µM) SRB screen; type: cell-based, human; conditions: renal cancer, 48 h
NCI-H522 = test: NCI single dose (10 µM) SRB screen; type: cell-based, human; conditions: non-small cell lung cancer, 48 h
TK-10 = test: NCI single dose (10 µM) SRB screen; type: cell-based, human; conditions: renal cancer, 48 h
MOLT-4 = test: NCI single dose (10 µM) SRB screen; type: cell-based, human; conditions: leukaemia, 48 h
SNB-19 = test: NCI single dose (10 µM) SRB screen; type: cell-based, human; conditions: CNS cancer, 48 h
HCC-2998 = test: NCI single dose (10 µM) SRB screen; type: cell-based, human; conditions: colon cancer, 48 h
BT-549 = test: NCI single dose (10 µM) SRB screen; type: cell-based, human; conditions: breast cancer, 48 h
KM12 = test: NCI single dose (10 µM) SRB screen; type: cell-based, human; conditions: colon cancer, 48 h
HL-60(TB) = test: NCI single dose (10 µM) SRB screen; type: cell-based, human; conditions: leukaemia, 48 h
SNB-75 = test: NCI single dose (10 µM) SRB screen; type: cell-based, human; conditions: CNS cancer, 48 h
HCT-116 = test: NCI single dose (10 µM) SRB screen; type: cell-based, human; conditions: colon cancer, 48 h
HOP-62 = test: NCI single dose (10 µM) SRB screen; type: cell-based, human; conditions: non-small cell lung cancer, 48 h
MCF7 = test: NCI single dose (10 µM) SRB screen; type: cell-based, human; conditions: breast cancer, 48 h
SK-OV-3 = test: NCI single dose (10 µM) SRB screen; type: cell-based, human; conditions: ovarian cancer, 48 h
Escherichia coli = test: Agar well diffusion method
Staphylococcus aureus = test: Agar well diffusion method
A498 = test: NCI single dose (10 µM) SRB screen; type: cell-based, human; conditions: renal cancer, 48 h

COC(=O)C1=C(C)NC(C)=C(C(=O)OC)C1c1cccc(C#N)c1 [Compound 1a, Dimethyl 4-(3-cyanophenyl)-2,6-dimethyl-1,4-dihydropyridine-3,5-dicarboxylate]
30.8%: % activity index, E. coli (Escherichia coli; relative to ciprofloxacin)
24%: GI% SNB-75 (SNB-75)
9 mm: zone of inhibition at 1000 µg/mL (Bacillus subtilis; Bacillus subtilis, 24 h, read-out: Diameter of inhibition zone, B. subtilis)
13 mm: zone of inhibition at 1000 µg/mL (Candida albicans; Candida albicans, 24 h, read-out: Diameter of inhibition zone, C. albicans) | zone of inhibition at 1000 µg/mL (Staphylococcus aureus; Staphylococcus aureus, 24 h, read-out: Diameter of inhibition zone, S. aureus)
−4%: Mean GI% (NCI 60 cancer cell lines)
48.1%: % activity index, C. albicans (Candida albicans; relative to clotrimazole)
8 mm: zone of inhibition at 1000 µg/mL (Escherichia coli; Escherichia coli, 24 h, read-out: Diameter of inhibition zone, E. coli)
– (Only GI% ≥ 10 are shown): GI% HOP-92 (HOP-92) | GI% SK-MEL-5 (SK-MEL-5) | GI% EKVX (EKVX) | GI% SR (SR) | GI% M14 (M14) | GI% MDA-MB-468 (MDA-MB-468) | GI% UACC-62 (UACC-62) | GI% HCT-15 (HCT-15) | GI% UACC-257 (UACC-257) | GI% MALME-3M (MALME-3M) | GI% UO-31 (UO-31) | GI% NCI-H23 (NCI-H23) | GI% RPMI-8226 (RPMI-8226) | GI% HT29 (HT29) | GI% SK-MEL-2 (SK-MEL-2) | GI% CCRF-CEM (CCRF-CEM) | GI% CAKI-1 (CAKI-1) | GI% LOX IMVI (LOX IMVI) | GI% SW-620 (SW-620) | GI% U251 (U251) | GI% HS578T (HS578T) | GI% MDA-MB-231 (MDA-MB-231) | GI% NCI-H226 (NCI-H226) | GI% A549/ATCC (A549/ATCC) | GI% SF-268 (SF-268) | GI% DU-145 (DU-145) | GI% NCI/ADR-RES (NCI/ADR-RES) | GI% NCI-H322M (NCI-H322M) | GI% MDA-MB-435 (MDA-MB-435) | GI% PC-3 (PC-3) | GI% COLO 205 (COLO 205) | GI% SF-295 (SF-295) | GI% ACHN (ACHN) | GI% NCI-H522 (NCI-H522) | GI% TK-10 (TK-10) | GI% MOLT-4 (MOLT-4) | GI% SNB-19 (SNB-19) | GI% HCC-2998 (HCC-2998) | GI% BT-549 (BT-549) | GI% KM12 (KM12) | GI% HL-60(TB) (HL-60(TB)) | GI% HCT-116 (HCT-116) | GI% HOP-62 (HOP-62) | GI% MCF7 (MCF7) | GI% SK-OV-3 (SK-OV-3) | GI% A498 (A498)
39.1%: % activity index, B. subtilis (Bacillus subtilis; relative to ciprofloxacin)
54.2%: % activity index, S. aureus (Staphylococcus aureus; relative to ciprofloxacin)
